{"source": "patent US5162201A", "about": "“Analytical method making use of monoglyceride lipase” (priority 1987, dated 1992)", "key": {"[1]": {"test_system": "monoglyceride lipase of this invention", "experiment": "Substrate specificity of the monoglyceride lipase", "type": "biochemical, Bacillus stearothermophilus H-165", "conditions": "named substance used as substrate", "procedure": "(8) Substrate specificity: The substrate specificity of the monoglyceride lipase of this invention was investigated under conditions which followed the below-described measurement method of enzymatic activity for the monoglyceride lipase of this invention.\n(§1) To 0.4 ml of a reaction solution of the above composition, 50 μl of 10 mM monolaurin (0.5% aqueous solution of \"Triton X-100\") was added. The resultant mixture was provisionally heated at 37° C. for 2-3 minutes and 50 μl of an enzyme solution was added to initiate a reaction. Exactly 10 minutes later, 2.5 ml of 0.5% SDS (sodium dodecyl suflate) was added to terminate the reaction. The absorbance was measured at a wavelength of 550 nm. Regarding the enzymatic activity, the activity capable of producing 1 μmole of glycerol per minute was defined as 1 Unit (1 U). The following equation will be followed upon calculation of enzymatic activity (potency) by this measurement method of enzymatic activity. [formula] ΔA 550: Absorbance at the wavelength of 500 nm 2.95: Total volume of reaction mixture (ml)"}, "[2]": {"test_system": "monoglyceride lipase of this invention", "experiment": "Effects of surface active agents and metal ions on the monoglyceride lipase", "type": "biochemical, Bacillus stearothermophilus H-165", "conditions": "for Activity of lipase (%): not added = 100, 10 min", "procedure": "as §1, with “activity.” for “activity. [formula] ΔA 550: Absorbance at the wavelength of 500 nm 2.95: Total volume of reaction mixture (ml)”"}, "[3]": {"test_system": "monoglyceride lipase of this invention", "experiment": "Glycerol liberated from α,β-diglycerides by pancreatic lipase plus monoglyceride lipase", "type": "biochemical, Bacillus stearothermophilus H-165", "conditions": "for glycerol liberated from the α,β-diglyceride substrate: α-position hydrolyzed by pancreatic lipase, then monoglyceride lipase of this invention on the β-monoglyceride formed", "procedure": "2) Substrate specificity of the monoglyceride lipase upon use of α,β-diglyceride as a substrate:\ni) The below-described α,β-diglycerides were separately employed as substrates. Their α-positions were hydrolyzed by using pancreatic lipase and the monoglyceride lipase of this invention was caused to act on β-monoglycerides thus formed. Thereafter, glycerol thus liberated was analyzed."}, "[4]": {"experiment": "Confirmation by HPLC of fatty acid liberated from α-linoleoyl-β-oleoyl-diglyceride", "type": "biochemical", "conditions": "37° C., 10 minutes, pH 8.3; monoglyceride lipase (0.5 U) added to the pancreatic lipase reaction solution", "procedure": "1) Confirmation of a fatty acid liberated from α-linoleoyl-β-oleoyl-diglyceride as a substrate, by high performance liquid chromatography (HPLC): i) Pancreas-derived lipase (50 μl) was added to 1.0 ml of a reaction solution having a composition of 0.5 mg of α-linoleoyl-β-oleoyl-diglyceride, 1.8 mg of a non-ionic surface active agent (\"Triton X-100\", trade name; product of Sigma Chemical Company), 3.8 mg of deoxycholic acid, 20 U of colipase, 0.15 mg of calcium chloride, and 200 μl of 0.1 M N-tri(hydroxymethyl) methyl-3-aminopropanesulfonic acid (TAPS)-NaOH (pH 8.3). After allowing them to react at 37° C. for 10 minutes, the reaction was terminated. A 15 μl aliquot of the reaction mixture was applied on a column and was then analyzed by high performance liquid chromatography under the following conditions.\nColumn: \"Zorbox ODS\" (trade name; 4.6 mm.phi.×25 cm)\nSolvent: acetonitrile:H2 O (96:4)\nDetection: ultraviolet absorption at 205 nm […]\nii) The monoglyceride lipase (0.5 U) was added to a reaction solution of the same composition as that employed above. A fatty acid liberated in substantially the same manner was detected by high performance liquid chromatography. As a result, linoleic acid and oleic acid were confirmed at the retention times of 23 minutes and 31 minutes respectively."}}}
{"molecule": "CCCCC/C=C\\C/C=C\\CCCCCCCC(=O)OCC(CO)OC(=O)CCCCCCC/C=C\\C/C=C\\CCCCC", "note": "(stereo not shown) [1,2-dilinolein]", "values": [{"measurement": "glycerol hydrolyzed from the substrate in the presence of the monoglyceride lipase", "setting": "[1]", "value": "not detected"}]}
{"molecule": "CCCCC/C=C\\C/C=C\\CCCCCCCC(=O)OCC(O)COC(=O)CCCCCCC/C=C\\C/C=C\\CCCCC", "note": "[1,3-dilinolein]", "values": [{"measurement": "glycerol hydrolyzed from the substrate in the presence of the monoglyceride lipase", "setting": "[1]", "value": "not detected"}]}
{"molecule": "[Ca+2].[Cl-].[Cl-]", "note": "[CaCl2]", "values": [{"measurement": "effect of addition on the activity of the monoglyceride lipase (in words)", "setting": "[2]", "value": "not affected"}]}
{"molecule": "C[C@H](CCC(=O)O)[C@H]1CC[C@H]2[C@@H]3[C@H](O)C[C@@H]4C[C@H](O)CC[C@]4(C)[C@H]3C[C@H](O)[C@]12C", "note": "[Cholic acid]", "values": [{"measurement": "effect of addition on the activity of the monoglyceride lipase (in words)", "setting": "[2]", "value": "inhibition of the activity is observed in a high concentration range"}]}
{"molecule": "[Cl-].[Cl-].[Mg+2]", "note": "[MgCl2]", "values": [{"measurement": "effect of addition on the activity of the monoglyceride lipase (in words)", "setting": "[2]", "value": "not affected"}]}
{"molecule": "CCCCCCCCCCCC(=O)OCC(O)CO", "note": "(stereo not shown) [Monolaurin]", "values": [{"measurement": "activity against the substrate (in words)", "setting": "[1]", "value": "maximum activity"}]}
{"molecule": "CCCCCCCC/C=C\\CCCCCCCC(=O)OC(CO)CO", "note": "[Monoolein (β-monoglyceride), Monoolein]", "values": [{"measurement": "Activity of lipase (%)", "setting": "[1]; Monolaurin = 100.0", "value": 75.6, "unit": "%"}]}
{"molecule": "CCCCCCCC/C=C\\CCCCCCCC(=O)OCC(COC(=O)CCCCCCC/C=C\\CCCCCCCC)OC(=O)CCCCCCC/C=C\\CCCCCCCC", "note": "[Triolein]", "values": [{"measurement": "glycerol hydrolyzed from the substrate in the presence of the monoglyceride lipase", "setting": "[1]", "value": "not detected"}]}
{"molecule": "CCCCC/C=C\\C/C=C\\CCCCCCCC(=O)OCC(CO)OC(=O)CCCCCCC/C=C\\C/C=C\\CCCCC", "note": "(stereo not drawn) [α,β-dilinoleylglyceride]", "values": [{"measurement": "glycerol liberated from the α,β-diglyceride substrate", "setting": "[3]", "value": "glycerol was detected"}]}
{"molecule": "CCCCCCCC/C=C\\CCCCCCCC(=O)OCC(CO)OC(=O)CCCCCCCCCCCCCCC", "note": "(stereo not drawn) [α-oleyl-β-palmitoyldiglyceride]", "values": [{"measurement": "glycerol liberated from the α,β-diglyceride substrate", "setting": "[3]", "value": "glycerol was detected"}]}
{"molecule": "CCCCCCCC/C=C\\CCCCCCCC(=O)OC(CO)COC(=O)CCCCCCCCCCCCCCC", "note": "(stereo not drawn) [α-palmitoyl-β-oleoyldiglyceride]", "values": [{"measurement": "glycerol liberated from the α,β-diglyceride substrate", "setting": "[3]", "value": "glycerol was detected"}]}
{"molecule": "Triton X-100", "values": [{"measurement": "effect of addition on the activity of the monoglyceride lipase (in words)", "setting": "[2]", "value": "inhibition of the activity is observed in a high concentration range"}, {"measurement": "Activity of lipase (%)", "setting": "[2]; reagent concentration 0.1%", "value": 81.7, "unit": "%"}, {"measurement": "Activity of lipase (%)", "setting": "[2]; reagent concentration 0.5%", "value": 46.5, "unit": "%"}]}
{"molecule": "pancreatic lipase: pancreas-derived lipase that hydrolyzes the α-position of α,β-diglyceride (protein, UniProt P00591 1-450, looked up) Pancreatic triacylglycerol …: SEVCFPRLGCFSDDAPWAGIVQRPLKILPWSPKDVDTRFLLYTNQNQNNYQELVADPSTITNSNFRMDRKTRFIIHGFIDKGEEDWLSNICKNLFKVESVNCICVDWKGGSRTGYTQASQNIRIVGAEVAYFVEVLKSSLGYSPSNVHVIGHSLGSHAAGEAGRRTNGTIERITGLDPAEPCFQGTPELVRLDPSDAKFVDVIHTDAAPIIPNLGFGMSQTVGHLDFFPNGGKQMPGCQKNILSQIVDIDGIWEGTRDFVACNHLRSYKYYADSILNPDGFAGFPCDSYNVFTANKCFPCPSEGCPQMGHYADRFPGKTNGVSQVFYLNTGDASNFARWRYKVSVTLSGKKVTGHILVSLFGNEGNSRQYEIYKGTLQPDNTHSDEFDSDVEVGDLQKVKFIWYNNNVINPTLPRVGASKITVERNDGKVYDFCSQETVREEVLLTLNPC", "values": [{"measurement": "position of α,β-diglyceride / monoglyceride acted on, from the fatty acid liberated", "setting": "[4]", "value": "act on the α-position of α,β-diglyceride"}, {"measurement": "glycerol liberated from the α,β-diglyceride substrates", "setting": "[3]; pancreatic lipase used singly", "value": "glycerol was not detected"}]}
